# From publication PMC6856039 (Investigational New Drugs, 2019)
# Entries after “also recorded” stand apart in the source; their conditions may differ.
# Test system: Japanese patients with advanced EGFR mutation-positive NSCLC
# Test: Phase I study: dose-limiting toxicities, adverse drug reactions, tolerability
# Format: in vivo, human
# Settings: for patients who presented a DLT: Cycle 1 of dose escalation phase; for maximum tolerated dose (MTD): dose escalation phase
# Description: This was an open-label, non-randomized, dose escalation phase I study conducted between December 14, 2015 and July 7, 2016 at 12 centers in Japan. The study was conducted in three phases (dose escalation phase, expansion phase, and extension phase), and the design is shown in Supplementary Fig. 1 (Online Resource 1). […] In patients who received the BID regimen, the administration interval was ≥10 h.
# The first phase was the dose escalation phase conducted according to a 3 + 3 design, with a minimum of three patients treated at each dose level. […] The dosing rationale was derived from a 4-weeks repeated oral-dose toxicology study in monkeys. […] If none of the initial three patients treated within a dose level experienced a dose-limiting toxicity (DLT) during Cycle 1, the dose was escalated to the next level. […] If none of the three additional patients experienced DLTs after all of them completed Cycle 1, the dose was escalated to the next level. If at least one of the additional three patients developed a DLT, then the dose escalation was stopped and at least six evaluable patients were enrolled at the previous dose level to establish the maximum tolerated dose (MTD). The maximum dose level was defined as Dose Level 9 (150 mg/day). Based on safety and PK results, the dosing schedule could be changed to a BID regimen.
# AEs were evaluated and graded according to the National Cancer Institute Common Terminology Criteria for Adverse Events Version 4.03. DLTs were also evaluated and defined as hematologic toxicity (Grade 4 neutropenia lasting >7 days, Grade 4 thrombocytopenia or Grade 3 thrombocytopenia associated with bleeding and requiring blood transfusion, or febrile neutropenia) or non-hematologic toxicity (Grade ≥3 nausea/vomiting uncontrolled by aggressive antiemetic treatment, Grade ≥3 diarrhea lasting >48 h and unresponsive to treatment, Grade ≥3 aspartate aminotransferase/alanine aminotransferase lasting >7 days, corneal disorder worsening by ≥1 grade, or Grade ≥3 other non-hematological toxicity).
smiles,measurement,setting,value
C=CC(=O)N[C@H]1CCc2c(-c3cnc4ccccc4c3)c3c(N)ncnc3n2C1 [TAS-121],"Urticaria, ≥G3","12 mg/day BID, N = 5",0 n
same,"Venous thromboembolism, any grade","12 mg/day BID, N = 5",0 n
same,"Venous thromboembolism, ≥G3","12 mg/day BID, N = 5",0 n
same,"Vomiting, ≥G3","12 mg/day BID, N = 5",0 n
same,"WBC decreased, any grade","12 mg/day BID, N = 5",0 n
same,"WBC decreased, ≥G3","12 mg/day BID, N = 5",0 n
same,"ALT increased, ≥G3","12 mg/day QD, N = 3",0 n
same,"AST increased, ≥G3","12 mg/day QD, N = 3",0 n
same,"Decreased appetite, ≥G3","12 mg/day QD, N = 3",0 n
same,"Diarrhea, ≥G3","12 mg/day QD, N = 3",0 n
same,"Dry skin, ≥G3","12 mg/day QD, N = 3",0 n
same,"Embolic and thrombotic events, any grade","12 mg/day QD, N = 3",2 n
same,"Hemoglobin decreased, any grade","12 mg/day QD, N = 3",0 n
same,"Hemoglobin decreased, ≥G3","12 mg/day QD, N = 3",0 n
same,"Hypoalbuminemia, any grade","12 mg/day QD, N = 3",0 n
same,"Hypoalbuminemia, ≥G3","12 mg/day QD, N = 3",0 n
same,"Interstitial lung disease, any grade","12 mg/day QD, N = 3",0 n
same,"Interstitial lung disease, ≥G3","12 mg/day QD, N = 3",0 n
same,"Malaise, ≥G3","12 mg/day QD, N = 3",0 n
same,"Nausea, any grade","12 mg/day QD, N = 3",2 n
same,"Nausea, ≥G3","12 mg/day QD, N = 3",0 n
same,"Other embolic and thrombotic events, any grade","12 mg/day QD, N = 3",2 n
same,"Other embolic and thrombotic events, ≥G3","12 mg/day QD, N = 3",0 n
same,"Platelet count decreased, any grade","12 mg/day QD, N = 3",2 n
same,"Pruritus, any grade","12 mg/day QD, N = 3",0 n
same,"Pruritus, ≥G3","12 mg/day QD, N = 3",0 n
same,"Pyrexia, ≥G3","12 mg/day QD, N = 3",0 n
same,"Rash maculo-papular, any grade","12 mg/day QD, N = 3",1 n
same,"Rash maculo-papular, ≥G3","12 mg/day QD, N = 3",0 n
same,"Rash, any grade","12 mg/day QD, N = 3",0 n
same,"Rash, ≥G3","12 mg/day QD, N = 3",0 n
same,"Stomatitis, ≥G3","12 mg/day QD, N = 3",0 n
same,"Urticaria, any grade","12 mg/day QD, N = 3",2 n
same,"Urticaria, ≥G3","12 mg/day QD, N = 3",1 n
same,"Vomiting, ≥G3","12 mg/day QD, N = 3",0 n
same,"WBC decreased, any grade","12 mg/day QD, N = 3",0 n
same,"WBC decreased, ≥G3","12 mg/day QD, N = 3",0 n
same,"ALT increased, any grade","16 mg/day QD, N = 3",0 n
same,"ALT increased, ≥G3","16 mg/day QD, N = 3",0 n
same,"AST increased, any grade","16 mg/day QD, N = 3",0 n
same,"AST increased, ≥G3","16 mg/day QD, N = 3",0 n
same,"Decreased appetite, ≥G3","16 mg/day QD, N = 3",0 n
same,"Diarrhea, any grade","16 mg/day QD, N = 3",2 n
same,"Diarrhea, ≥G3","16 mg/day QD, N = 3",1 n
same,"Dry skin, any grade","16 mg/day QD, N = 3",0 n
same,"Dry skin, ≥G3","16 mg/day QD, N = 3",0 n
same,"Embolic and thrombotic events, any grade","16 mg/day QD, N = 3",1 n
same,"Hemoglobin decreased, any grade","16 mg/day QD, N = 3",1 n
same,"Hemoglobin decreased, ≥G3","16 mg/day QD, N = 3",0 n
same,"Hypoalbuminemia, any grade","16 mg/day QD, N = 3",0 n
same,"Hypoalbuminemia, ≥G3","16 mg/day QD, N = 3",0 n
same,"Interstitial lung disease, ≥G3","16 mg/day QD, N = 3",1 n
same,"Malaise, any grade","16 mg/day QD, N = 3",0 n
same,"Malaise, ≥G3","16 mg/day QD, N = 3",0 n
same,"Nausea, any grade","16 mg/day QD, N = 3",1 n
same,"Nausea, ≥G3","16 mg/day QD, N = 3",0 n
same,"Other embolic and thrombotic events, any grade","16 mg/day QD, N = 3",0 n
same,"Other embolic and thrombotic events, ≥G3","16 mg/day QD, N = 3",0 n
same,"Pruritus, ≥G3","16 mg/day QD, N = 3",0 n
same,"Pyrexia, ≥G3","16 mg/day QD, N = 3",0 n
same,"Rash maculo-papular, any grade","16 mg/day QD, N = 3",1 n
same,"Rash maculo-papular, ≥G3","16 mg/day QD, N = 3",0 n
same,"Rash, any grade","16 mg/day QD, N = 3",0 n
same,"Rash, ≥G3","16 mg/day QD, N = 3",0 n
same,"Stomatitis, ≥G3","16 mg/day QD, N = 3",0 n
same,"Urticaria, any grade","16 mg/day QD, N = 3",1 n
same,"Urticaria, ≥G3","16 mg/day QD, N = 3",1 n
same,"Vomiting, ≥G3","16 mg/day QD, N = 3",0 n
same,"WBC decreased, any grade","16 mg/day QD, N = 3",2 n
same,"WBC decreased, ≥G3","16 mg/day QD, N = 3",0 n
same,DLT,BID 8 mg/day,Interstitial lung disease^a
same,Number of patients who experienced a DLT,"BID 8 mg/day, 6 DLT evaluable patients",1
same,DLT,BID 12 mg/day,Interstitial lung disease^a; also recorded: Platelet count decreased; also recorded: Left ventricular failure
same,Number of patients who experienced a DLT,"BID 12 mg/day, 5 DLT evaluable patients",2
same,patients who presented a DLT,BID regimen,three
same,maximum tolerated dose (MTD),BID regimen,8 mg/day
same,Number of patients who experienced a DLT,"QD 4 mg/day, 3 DLT evaluable patients",0
same,Number of patients who experienced a DLT,"QD 8 mg/day, 6 DLT evaluable patients",0
same,DLT,QD 10 mg/day,Drug-induced liver injury
same,Number of patients who experienced a DLT,"QD 10 mg/day, 6 DLT evaluable patients",1
same,DLT,QD 12 mg/day,Platelet count decreased; also recorded: Urticaria
same,Number of patients who experienced a DLT,"QD 12 mg/day, 3 DLT evaluable patients",2
same,DLT,QD 16 mg/day,Urticaria; also recorded: Interstitial lung disease^a
same,Number of patients who experienced a DLT,"QD 16 mg/day, 3 DLT evaluable patients",2
same,patients who presented a DLT,QD regimen,Five
same,maximum tolerated dose (MTD),QD regimen,10 mg/day
same,"AST increased, ≥G3","Total, N = 134",0 n
same,"Decreased appetite, ≥G3","Total, N = 134",0 n
same,"Dry skin, ≥G3","Total, N = 134",0 n
same,"Hypoalbuminemia, ≥G3","Total, N = 134",0 n
same,"Malaise, ≥G3","Total, N = 134",0 n
same,"Nausea, ≥G3","Total, N = 134",0 n
same,"Pruritus, ≥G3","Total, N = 134",0 n
same,"Stomatitis, ≥G3","Total, N = 134",0 n
same,"WBC decreased, ≥G3","Total, N = 134",0 n
same,treatment-related deaths,"all patients, during the study",No treatment-related deaths
